# Reference: the OPERA property sets (Mansouri et al. 2018)
# Details: not given
row,solubility [mM],SMILES
1,811,COc1cc(O)c(C(=O)c2ccccc2)cc1S(=O)(=O)O
2,2,CCOCCOC(=O)C=Cc1ccc(OC)cc1
3,24.5,CCCCOC(=O)C=Cc1ccccc1

# Further lines, the compound ahead of its results:
row,SMILES,solubility [mM]
1,C=C1C=CC(=O)O1,104
2,O=C(O)CCC(=O)OOC(=O)CCC(=O)O,142
3,OC[C@H]1O[C@@H](n2cnc3cncnc32)[C@H](O)[C@@H]1O,396
4,O=C(NCN1CCOCC1)c1cnccn1,1500
5,C#CC(C)(CC)OC(N)=O (stereo not given),113

# Same assay, conditions: 22 °C
row,SMILES,solubility [mM]
1,CC(=O)NCc1c(I)c(NC(C)=O)c(I)c(C(=O)O)c1I,4.78

# Same assay, conditions: 25 °C
row,solubility [mM],SMILES
1,5.77,O=Nc1c(O)ccc2ccccc12
2,10.7,NCCNc1cccc2ccccc12
3,4.77,Nc1ccc(S(=O)(=O)Nc2ccnn2-c2ccccc2)cc1
4,0.207,O=C(N/N=C/c1ccccc1O)c1ccncc1

# Continued, compound first:
row,SMILES,solubility [mM]
1,O=NN(CCCl)C(=O)NCCCl,18.7
2,CC(C)(C)CC(=O)OCC(=O)[C@@]12OC(C)(C)O[C@@H]1C[C@H]1[C@@H]3CCC4=CC(=O)C=C[C@]4(C)[C@@]3(F)[C@@H](O)C[C@@]12C,0.00751
